Data: publication PMC10327353 (Breast Cancer Research : BCR, 2023)
Read-outs that look alike come from different tables or passages of the source.

Legend:
[1] = target: T1, BCRP (Homo sapiens, UniProt Q9UNQ0); test: BCRP efflux ratio, bi-directional transport assay; type: in vitro ADME
T1 construct: endogenous in cells; host or cells: Caco-2

[2] = Human hepatocyte intrinsic clearance; type: in vitro ADME; conditions: human hepatocytes; read-out: Human Heps Clint
[3] = Phase 1 study: plasma pharmacokinetics; type: in vivo, human; conditions: for AUC(0-t): 250 mg
Protocol: Blood samples for PK analyses of DZD1516 and DZ2678 were collected on C0D1. Samples were obtained at pre-dose and at 0.5, 1, 1.5, 2, 2.5, 3, 4, 6, 8, 10, 24, 48, and 72 h after the dose, while for C1D15, samples were obtained at pre-dose and 0.5, 1, 1.5, 2, 2.5, 3, 4, 6, 8, and 10 h after the dose. CSF samples for PK analyses of DZD1516 and its metabolite DZ2678 were collected from patients with BM (C1D15) and LM (C1D15 and C3D1) at steady state (Additional file 1). Plasma and CSF samples were analyzed by LabCorp Madison laboratory (Madison, WI, USA) and LabCorp Shanghai laboratory (Shanghai, China) using a validated LC/MS/MS bioanalytical method to determine DZD1516 and DZ2678 concentrations. Non-compartmental PK analysis was performed using Phoenix WinNonlin (Certara USA Inc., version 8.3.3.33).
Blood samples for PK analyses of DZD1516 and DZ2678 were collected on C0D1 and C1D15.
Plasma concentrations of analytes evaluated in this study were determined using validated bioanalytical methods at Labcorp Madison lab (Madison, WI, USA) and Labcorp Shanghai lab (Shanghai, China). Concentrations of analytes in human plasma containing K2EDTA as an anticoagulant was determined using plasma precipitation, followed by analysis using high-performance LC-MS/MS detection. Two bioanalytical methods used […] of plasma and were linear over the range of 5.00 (the lower limit of quantification) to 5000 ng/mL for DZD1516 and 2.00 (the lower limit of quantification) to 2000 ng/mL for DZ2678 (Labcorp Shanghai lab), 1.96 (the lower limit of quantification) to 1960 ng/mL for DZ2678 (Labcorp Madison lab). The analysis runs for all analytes were determined to have a high degree of reproducibility and acceptably low inter-run carryover, which was considered acceptable for PK quantification. The plasma samples were stored at –70°C until analysis. PK analyses were performed by using Phoenix WinNonLin (Certara USA, Inc., Version 8.1 or higher).

[4] = tested on: HER2+ metastatic breast cancer; test: Phase 1 study: antitumor activity (modified RECIST v1.1); type: in vivo, human
Protocol: (§1) Tumor imaging assessments were conducted every 6 weeks during the first 24 weeks (relative to C1D1) and every 9 weeks thereafter per investigator review according to modified RECIST v1.1 until progressive disease, starting a new anticancer therapy or withdrawal of informed consent (Additional file 1).
as §1, with “six” for “6”, “nine” for “9”, “anti-cancer” for “anticancer”, “consent. Patients who achieved an objective response had confirmatory scans at least four weeks apart.” for “consent (Additional file 1).”
The modified RECIST 1.1 used in this study includes both CNS assessment and extracranial assessment. A maximum of five measurable extracranial lesions, with a maximum of two lesions per organ, were selected in patients with extracranial disease. In addition, a maximum of five measurable intracranial lesions were selected in patients with intracranial disease. […] An overall response will be derived based on extracranial and intracranial response as described in the below table.

T1 sequence (Q9UNQ0 whole entry): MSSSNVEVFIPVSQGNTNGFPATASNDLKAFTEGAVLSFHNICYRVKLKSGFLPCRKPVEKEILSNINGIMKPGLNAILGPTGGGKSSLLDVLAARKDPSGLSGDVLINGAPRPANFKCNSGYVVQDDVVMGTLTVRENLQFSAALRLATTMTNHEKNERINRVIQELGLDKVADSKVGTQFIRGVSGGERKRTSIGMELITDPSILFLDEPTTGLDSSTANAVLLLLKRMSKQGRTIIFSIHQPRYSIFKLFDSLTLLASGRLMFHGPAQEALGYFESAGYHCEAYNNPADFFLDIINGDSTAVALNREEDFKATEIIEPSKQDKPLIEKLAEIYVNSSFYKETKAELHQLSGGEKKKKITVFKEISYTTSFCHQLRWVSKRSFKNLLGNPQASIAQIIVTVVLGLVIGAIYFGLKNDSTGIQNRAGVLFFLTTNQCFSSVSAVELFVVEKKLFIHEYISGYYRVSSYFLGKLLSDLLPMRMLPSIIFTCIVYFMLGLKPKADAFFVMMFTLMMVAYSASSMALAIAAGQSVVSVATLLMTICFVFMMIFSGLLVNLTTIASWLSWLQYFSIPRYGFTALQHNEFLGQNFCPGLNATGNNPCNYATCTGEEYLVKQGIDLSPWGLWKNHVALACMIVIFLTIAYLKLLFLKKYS

With `COc1cc(O[C@H]2CCN(C)CC2(F)F)c2c(Nc3ccc(Oc4ccn5ncnc5c4)c(C)c3)ncnc2c1` [DZD1516] the “Efflux ratio BCRP @1 µM” value ([1]; 1 µM, listed as Cpd-5) was 1.3, the efflux ratio at 120 min, 1 µM ([1]; human, Caco-2, pH 7.4, 1 µM) was < 2 and the hepatocyte CLint [2] was 12 µL/min/1e6 cells. For the same compound, the “Css,max, Geometric Mean [CV%]” value ([3]; Day 15, 250 mg BID DZD1516) was 1410[44.64] ng/mL, the “Css,min, Geometric Mean [CV%]” value ([3]; Day 15, 250 mg BID DZD1516) was 442.8[50.12] ng/mL and the “tss,max, Median (Min, Max)” value ([3]; Day 15, 250 mg BID DZD1516) was 1.483(0.533,2.47) hr. The AUC(0-t) ([3]; human, plasma, oral, Day 1, 250 mg DZD1516, read-out: AUC0-10, Geometric Mean [CV%]) was 6160 ng·h/mL, the AUC(0-t) ([3]; human, plasma, oral, Day 1, 250 mg DZD1516, read-out: AUC0-72, Geometric Mean [CV%]) was 13200 ng·h/mL and the AUC(0-t) ([3]; human, plasma, oral, Day 15, 250 mg BID DZD1516, read-out: AUC0-10, Geometric Mean [CV%]) was 7560 ng·h/mL. For the same compound, the Cmax ([3]; human, plasma, oral, Day 1, 250 mg DZD1516, read-out: Cmax, Geometric Mean [CV%]) was 1330 ng/mL, the half-life ([3]; human, plasma, oral, Day 1, 250 mg DZD1516, read-out: t1/2, Mean (SD) (converted)) was 19.8 h and the Tmax ([3]; human, plasma, oral, Day 1, 250 mg DZD1516, read-out: tmax, Median (Min, Max)) was 2.85 h. It also gave an AUC ([3]; human, plasma, oral, Day 15, 250 mg BID DZD1516, read-out: AUCtau, Geometric Mean [CV%]) of 8340 ng·h/mL, a half-life ([3]; human, plasma, oral, patients, read-out: half-life) of 13.3 to 20.1 h and a Tmax ([3]; human, plasma, patients, single oral administration 50 to 300 mg, read-out: median tmax) of 2.15 to 3.22 h. The accumulation ([3]; steady state, 15 days of twice daily dosing) was “approximately twofold”, the disease control rate ([4]; MTD (250 mg), 3/5) was 60% and the “patients who achieved stable disease” value ([4]; all dose levels) was 6 out of 23. For the same compound, the “best antitumor efficacy in intracranial, extracranial and overall lesions” value ([4]; patients, median seven lines of prior systemic therapy) was “stable disease”.
